Test system: K. pneumoniae
Test: MIC of imipenem, ertapenem and meropenem
Format: cell-based, Klebsiella pneumoniae

SMILES: C[C@@H](O)[C@H]1C(=O)N2C(C(=O)O)=C(S[C@@H]3CN[C@H](C(=O)N(C)C)C3)[C@H](C)[C@H]12 [MEM, meropenem]
- MIC (K. pneumoniae IND (NDM-1 + OXA-1 + CTX-M-15)): 4 µg/mL
- MIC (K. pneumoniae KAM, KPC-3 + TEM-1 + SHV-11): 2 µg/mL
- MIC (K. pneumoniae KDH (DHA-2)): 0.12 µg/mL
- MIC (K. pneumoniae KDH, DHA-2, non-carbapenemase producer, overexpressed AmpC): 0.12 µg/mL
- MIC (K. pneumoniae KI2, NDM-1 + CTX-M-15 + OXA-1): 4 µg/mL
- MIC (K. pneumoniae KIE, NDM-1 + SHV-38 + CMY-16 + OXA-10): 1 µg/mL
- MIC (K. pneumoniae KPN (CTX-M-15)): 0.12 µg/mL
- MIC (K. pneumoniae KPN, CTX-M-15, non-carbapenemase producer): 0.012 µg/mL
- MIC (K. pneumoniae LEG (CTX-M-15 + TEM-1 + SHV-12)): 3 µg/mL
- MIC (K. pneumoniae LEG, CTX-M-15 + TEM-1 + SHV-12, non-carbapenemase producer, porin deficiency): 3 µg/mL
- MIC (K. pneumoniae LIB (OXA-48)): >32 µg/mL
- MIC (K. pneumoniae LIB, OXA-48): 16 µg/mL
- MIC (K. pneumoniae LIE, KPC-2 + TEM-2 + OXA-9): >32 µg/mL
- MIC (K. pneumoniae LOU, OXA-48): 0.5 µg/mL
- MIC (K. pneumoniae MAD (VIM-1 + CTX-M-3)): 1 µg/mL
- MIC (K. pneumoniae MAD, VIM-1+ CTX-M-3): 1 µg/mL
- MIC (K. pneumoniae MEK (CTX-M-15 + SHV-11)): 6 µg/mL
- MIC (K. pneumoniae MEK, CTX-M-15 + SHV-11, non-carbapenemase producer, porin deficiency): 6 µg/mL
- MIC (K. pneumoniae MUS (KPC-2 + TEM-1 + SHV-11 + SHV-12)): 1.5 µg/mL
- MIC (K. pneumoniae MUS, KPC-2 + TEM-1 + SHV-11 + SHV-12): 1.5 µg/mL
- MIC (K. pneumoniae OM2 (NDM-1 + TEM-1 + CTX-M-3 + SHV-11 + OXA-1)): 1.5 µg/mL
- MIC (K. pneumoniae OM2, NDM-1 + TEM-1 + CTX-M-3 + SHV-11 + OXA-1): 1.5 µg/mL
- MIC (K. pneumoniae OM4, NDM-1 + TEM-1 + CTX-M-15 + SHV-12 + OXA-9): 16 µg/mL
- MIC (K. pneumoniae OM8, NDM-1 + TEM-1 + CTX-M-15 + SHV-11 + OXA-1): 4 µg/mL
- MIC (K. pneumoniae OM11, OXA-48 + TEM-1 + CTX-M-14): 0.25 µg/mL
- MIC (K. pneumoniae OM13, NDM-1 + TEM-1 + CTX-M-15 + SHV-28 + OXA-1 + OXA-9): 2 µg/mL
- MIC (K. pneumoniae OM14, OXA-48 + TEM-1): 0.38 µg/mL
- MIC (K. pneumoniae OM15, NDM-1 + CTX-M-15 + SHV-130 + OXA-1): 3 µg/mL
- MIC (K. pneumoniae OM16, NDM-1 + CTX-M-15 + OXA-1 + OXA-181): 16 µg/mL
- MIC (K. pneumoniae OM19, NDM-1 + CTX-M-15 + SHV-12 + OXA-1): 8 µg/mL
- MIC (K. pneumoniae OMA419 (NDM-1 + OXA-1)): 2 µg/mL
- MIC (K. pneumoniae OMA419, NDM-1 + OXA-1): 2 µg/mL
- MIC (K. pneumoniae OMA601, NDM-1 + CTX-M-15 + OXA-1 + OXA-9): >32 µg/mL
- MIC (K. pneumoniae OMA (OXA-181 + CTX-M-15 + OXA-1)): 0.5 µg/mL
- MIC (K. pneumoniae OMA, OXA-181 + CTXM-15 + OXA-1): 0.5 µg/mL
- MIC (K. pneumoniae RAM (OXA-48)): 1 µg/mL
- MIC (K. pneumoniae RAM, OXA-48): 1 µg/mL
- MIC (K. pneumoniae ROB (OXA-48 + CTX-M-15 + TEM-1)): 0.5 µg/mL
- MIC (K. pneumoniae ROU (OXA-48 + CTX-M-15)): 0.25 µg/mL
- MIC (K. pneumoniae ROU, OXA-48 + CTX-M-15): 0.25 µg/mL
- MIC (K. pneumoniae SCO (OXA-48)): 0.25 µg/mL
- MIC (K. pneumoniae SCO, OXA-48): 0.25 µg/mL
- MIC (K. pneumoniae SHI (CTX-M-15 + TEM-1 + SHV-1)): 1 µg/mL
- MIC (K. pneumoniae SHI, CTX-M-15 + TEM-1 + SHV-11, non-carbapenemase producer, porin deficiency): 1 µg/mL
- MIC (K. pneumoniae SHM (CTX-M-15 + TEM-1 + SHV-11)): 1 µg/mL
- MIC (K. pneumoniae SHM, CTX-M-15 + TEM-1 + SHV-11, non-carbapenemase producer, porin deficiency): 3 µg/mL
- MIC (K. pneumoniae SIC (OXA-48 + CTX-M-15 + SHV-28)): 0.25 µg/mL
- MIC (K. pneumoniae SIC, OXA-48 + CTX-M-15 + SHV-28): 0.25 µg/mL
- MIC (K. pneumoniae SIM (CTX-M-15 + TEM-1 + SHV-1)): 6 µg/mL
- MIC (K. pneumoniae SIM, CTX-M-15 + TEM-1 + SHV-1, non-carbapenemase producer, porin deficiency): 6 µg/mL
- MIC (K. pneumoniae TAW, IMP-8 + SHV-12): 0.5 µg/mL
- MIC (K. pneumoniae TIK, OXA-48): 0.38 µg/mL
- MIC (K. pneumoniae TUR (IMP-1)): 8 µg/mL
- MIC (K. pneumoniae TUR, IMP-1): 8 µg/mL
- MIC (K. pneumoniae TWA, IMP-8): 0.5 µg/mL
- MIC (K. pneumoniae UK (NDM-1 + CTX-M-15 + CMY-4 + OXA-1)): >32 µg/mL
- MIC (K. pneumoniae UK, NDM-1 + CTX-M-15 + CMY-4 + OXA-1): >32 µg/mL
- MIC (K. pneumoniae VER, OXA-48 + TEM-1 + CTX-M-15 + SHV-11): 0.38 µg/mL
- MIC (K. pneumoniae VSG (OXA-48 + TEM-1 + CTX-M-15 + OXA-1)): 0.75 µg/mL
- MIC (K. pneumoniae VSG, OXA-48 + TEM-1 + CTX-M-15 + OXA-1): 0.75 µg/mL
- MIC (K. pneumoniae YC, KPC-2 + TEM-1 + SHV-11 + SHV-12 + OXA-9): 2 µg/mL
- MIC (strain K. pneumoniae 7725, SHV-1, non-carbapenemase producer): 0.032 µg/mL
- MIC (strain K. pneumoniae 648236, SHV-2a, non-carbapenemase producer): 0.38 µg/mL
- MIC (strain K. pneumoniae ALE, CTX-M-15 + SHV-1, non-carbapenemase producer): 4 µg/mL
- MIC (strain K. pneumoniae AMS, OXA-48 + TEM-1 + CTX-M-15 + OXA-1): 0.38 µg/mL
- MIC (strain K. pneumoniae BAJ, OXA-48 + TEM-1 + CTX-M-15 + SHV-28): 0.38 µg/mL
- MIC (strain K. pneumoniae BED, CTX-M-15 + TEM-1 + SHV-11, non-carbapenemase producer): 4 µg/mL
- MIC (strain K. pneumoniae BEL, OXA-48): 1 µg/mL
- MIC (strain K. pneumoniae BEN, OXA-48 + TEM-1 + CTX-M-15 + SHV-28): 0.25 µg/mL
- MIC (strain K. pneumoniae BER, SHV-28 + TEM-1, non-carbapenemase producer): 1 µg/mL
- MIC (strain K. pneumoniae ELK, OXA-48 + TEM-1 + CTX-M-15 + SHV-11): 0.38 µg/mL
- MIC (strain K. pneumoniae HOL, OXA-181 + CTX-M-15): 1 µg/mL
- MIC (strain K. pneumoniae MUS, KPC-2 + TEM-1 + SHV-11 + SHV-12): 1.5 µg/mL
- MIC (strain K. pneumoniae OM2, NDM-1 + TEM-1 + CTX-M-3 + SHV-11 + OXA-1): 1.5 µg/mL
- MIC (strain K. pneumoniae OMA419, NDM-1 + OXA-1): 2 µg/mL
- MIC (strain K. pneumoniae OMA, OXA-181 + CTXM-15 + OXA-1): 0.5 µg/mL
- MIC (strain K. pneumoniae ROU, OXA-48 + CTX-M-15): 0.25 µg/mL
- MIC (strain K. pneumoniae SCO, OXA-48): 0.25 µg/mL
- MIC (strain K. pneumoniae SIC, OXA-48 + CTX-M-15 + SHV-28): 0.25 µg/mL
- MIC (strain K. pneumoniae VSG, OXA-48 + TEM-1 + CTX-M-15 + OXA-1): 0.75 µg/mL

From patent US9328374B2, “Selective culture medium and method for detecting carbapenem-resistant bacteria in a test sample” (Institut National de la Sante et de la Recherche Medicale …, priority 2011, dated 2016)
